Consider two molecules from patent US10143681B2, “Factor XIa inhibitors” (MERCK SHARP & DOHME CORP., priority 2016, dated 2018).

What is called IC50 is the midpoint of a concentration-inhibition curve. Usually MRT stands for the average time that molecules of a dose stay in the body. The term bioavailability denotes the share of a dose that reaches the circulation, judged against a reference dose that is usually intravenous.

The target in data set [1] is Human plasma kallikrein (Homo sapiens (Human), UniProt P03952). The data set is described as follows: Kallikrein Assay. Type of data set: biochemical. The settings on record: purified Human plasma kallikrein 0.5 nM, substrate Acetyl-K-P-R-AFC; read-out: P. KLK IC50. The essentials:
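Purified human plasma kallikrein (0.5 nM final) with Acetyl-K-P-R-AFC substrate ([…]) in pH 7.4 HEPES/NaCl/CaCl2/PEG buffer, room temperature or 37 °C; fluorescence rise read at 405/510 nm under linear conditions after enzyme–inhibitor equilibration. IC50 from four-parameter logistic fit; Ki via Cheng–Prusoff.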

Data set [2] in a line: Rat Pharmacokinetic Screening IV/PO. It is filed as in vivo. The settings on record: male; for clearance: plasma clearance, IV administration; for MRT / bioavailability: plasma; for MRT: mean residence time; for bioavailability: oral bioavailability, oral vs. IV dosing. How it is done:
Plasma pharmacokinetic parameters for clearance (Cl), volume of distribution, mean residence time (MRT) and oral bioavailability (% F) were determined in rats from oral administration and IV administration studies. 4 male rats, typically weighing 225-260 gram, were fasted overnight prior to dosing. Compounds were prepared for oral and IV dosing by addition to a vehicle, depending on the dose used. For a typical preparation, 1 mg per mL (IV) or 1.5 mg per mL (oral) of test compound was added to vehicle comprised of 20% dimethyl sulfoxide (DMSO), 60% polyethylene glycol 400 (PEG400) and 20% water. IV formulation was administered to 2 rats via pre-cannulated jugular vein, and oral dosing was administered to 2 rats via oral gavage. Blood was collected by pre-cannulated artery, typically at predose, 2, 8, 15, 30 min, 1, 2, 4, 6, and 8 hr postdose for IV, and at predose, 15, 30 min, 1, 2, 4, 6, 8 hr for oral dosing. Samples were collected in K2EDTA tubes, stored on ice, and centrifuged. Plasma was transferred to a micro titer plate and stored at −70° C. until analysis. Plasma samples were extracted using protein precipitation and analyzed by liquid chromatography separation followed by mass spec detection (LC-MS/MS), using a standard curve for each compound. Plasma pharmacokinetic parameters were calculated for IV and oral dosing data by non-compartmental methods. Oral bioavailability was determined as the ratio of the dose-normalized plasma area under the curve (AUC) following oral dosing vs. IV dosing.

The subject of data set [3] is Human plasma (intrinsic coagulation cascade). The data set is described as follows: Activated Partial Thromboplastin Time (aPTT) Assay. The following applies: concentration that causes a 50% (1.5×) increase of clot time over vehicle. The essentials:
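Inhibitors spiked into pooled citrated normal-donor human plasma (aPTT 28-40 seconds), run on automated coagulation analyzer: ellagic acid activation of Factor XII, then clot time after recalcification. Reported as concentration giving 50% (1.5×) prolongation over vehicle clot time.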

Chain of Human plasma kallikrein (P03952 391-638): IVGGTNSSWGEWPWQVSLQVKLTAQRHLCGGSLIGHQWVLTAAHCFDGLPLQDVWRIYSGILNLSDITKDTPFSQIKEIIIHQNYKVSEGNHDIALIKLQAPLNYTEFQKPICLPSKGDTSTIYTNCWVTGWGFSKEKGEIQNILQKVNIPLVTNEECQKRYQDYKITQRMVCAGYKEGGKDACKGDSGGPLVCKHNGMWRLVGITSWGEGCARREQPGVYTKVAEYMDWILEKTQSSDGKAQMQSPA
Chain of Human plasma kallikrein (P03952 20-390 partner): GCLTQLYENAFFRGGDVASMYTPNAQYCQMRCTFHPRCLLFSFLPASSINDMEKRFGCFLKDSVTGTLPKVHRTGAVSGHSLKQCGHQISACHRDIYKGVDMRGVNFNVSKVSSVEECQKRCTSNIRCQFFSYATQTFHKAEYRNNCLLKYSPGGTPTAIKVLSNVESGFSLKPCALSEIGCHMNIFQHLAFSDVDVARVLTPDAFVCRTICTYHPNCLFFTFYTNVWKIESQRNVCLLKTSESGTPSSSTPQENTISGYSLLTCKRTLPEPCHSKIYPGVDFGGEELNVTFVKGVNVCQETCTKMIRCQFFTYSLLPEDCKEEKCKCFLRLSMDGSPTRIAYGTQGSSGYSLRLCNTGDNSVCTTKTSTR

With `O=C(O)c1ccc(NC(=O)C(CC2CC2(F)F)c2ccc(-c3c(C(F)F)ccc(Cl)c3F)c[n+]2[O-])cc1` (single isomer, unassigned) [Example 76, 2-(1-((4-carboxyphenyl)amino)-3-(2,2-difluorocyclopropyl)-1-oxopropan-2-yl)-5-(3-chloro-6-(difluoromethyl)-2-fluorophenyl)pyridine 1-oxide], the IC50 in data set [1] worked out at 14.5 nM. In data set [2], the clearance is 12.1 mL/min/kg, the MRT is 2.3 h and the bioavailability was 70%. In addition, in data set [3], the “aPTT (1.5x)” value was determined as 0.72 µM.
As for `O=C(O)c1ccc(NC(=O)[C@H](CC2CC2)c2ccc(-c3c(OC(F)F)ccc(Cl)c3F)c[n+]2[O-])cc1` (single isomer, unassigned) [Example 2], the IC50 in data set [1] worked out at 79 nM. In data set [2], this molecule yielded a clearance of 5 mL/min/kg, an MRT of 2.5 h and a bioavailability of 56%. Also, the “aPTT (1.5x)” value in data set [3] stood at 1.16 µM.
